Data as given in US20260167614A1, “IDENTIFICATION OF SMALL MOLECULES THAT RECRUIT AND ACTIVATE RNASE L” (UNIVERSITY OF FLORIDA RESEARCH FOUNDATION, INCORPORATED, priority 2022, published 2026).

Columns and labels:
pre-miR-21 and RNase L = target: T1, pre-miR-21 and RNase L (Homo sapiens, UniProt Q05823, H672N); experiment: Co-immunoprecipitation of pre-miR-21 and RNase L; type: binding; conditions: WT 32P-pre-miR-21, inactive RNase L
T1 construct: GST (N, cleaved yes); made in house; host or cells: BL21 AI Escherichia coli
T1 sequence (Q05823 1-741 H672N): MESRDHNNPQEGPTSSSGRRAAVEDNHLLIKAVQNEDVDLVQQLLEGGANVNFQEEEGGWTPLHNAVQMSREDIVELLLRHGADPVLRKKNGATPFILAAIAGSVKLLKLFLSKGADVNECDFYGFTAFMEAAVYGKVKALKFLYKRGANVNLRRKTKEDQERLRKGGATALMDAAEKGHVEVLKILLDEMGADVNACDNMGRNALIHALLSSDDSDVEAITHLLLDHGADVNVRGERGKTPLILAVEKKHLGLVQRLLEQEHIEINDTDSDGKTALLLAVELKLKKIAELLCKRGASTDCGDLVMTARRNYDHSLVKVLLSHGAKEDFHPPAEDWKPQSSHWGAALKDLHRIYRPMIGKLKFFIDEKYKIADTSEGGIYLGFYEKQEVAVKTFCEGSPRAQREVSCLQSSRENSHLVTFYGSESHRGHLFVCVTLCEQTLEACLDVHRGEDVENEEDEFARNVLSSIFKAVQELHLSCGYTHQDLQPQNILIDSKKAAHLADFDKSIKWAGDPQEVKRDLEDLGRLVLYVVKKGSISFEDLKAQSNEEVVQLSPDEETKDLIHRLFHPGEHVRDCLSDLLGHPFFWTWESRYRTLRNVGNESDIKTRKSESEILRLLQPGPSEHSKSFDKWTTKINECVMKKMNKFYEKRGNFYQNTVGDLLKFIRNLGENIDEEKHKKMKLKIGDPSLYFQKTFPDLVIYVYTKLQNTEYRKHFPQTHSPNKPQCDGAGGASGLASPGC
Protocol: Co-Immunoprecipitation of pre-miR-2I and RNase L. Approximately 20,000 cpm of 32P 5′-end labeled WT or mutant pre-miR-21 or an RNA construct where the A-bulge was mutated to a base pair (5′-[…] UGGGCUGU-3′) was folded in 1× RNase L Assay Buffer for 1 min at 95° C. and cooled on ice for 10 min. Following cooling, β-mercaptoethanol (7 mM), ATP (50 μM), and MgCl2 (1 mM) were added to the solution. The solution was aliquoted, and compounds were incubated in solution for 15 min (1% DMSO final concentration). […] Beads were then washed with 1×PBS supplemented with 0.02% (v/v) Tween-20. Radioactive signal in the supernatant and associated with the beads was quantified by a Beckman Coulter LS6500 Liquid Scintillation Counter. Relative RNA enrichment was calculated by comparing the radioactive signal associated with beads compared to the total radioactive signal from the beads plus the supernatant.

[1] = system: MDA-MB-231 cells modified with CRISPR and a control guide RNA; experiment: Global proteomics analysis via LC-MS/MS; type: cell-based
Protocol: RiboTAC 7 was then assessed for its ability to affect protein levels by deactivation of a miR-21-mediated cancer circuit, i.e., derepression of PDCD4. […] Proteome-wide analysis was also completed to study the effects of 7 and a locked nucleic acid (LNA) oligonucleotide that targets miR-21-5p on the proteome. The concentrations tested of both provided similar activity (5 nM of 7 and 100 nM of the LNA), as assessed by their effect on PDCD4 levels, ˜40% enhancement. […] Neither modality affected proteins that are direct targets of miRNA let-7b-5p, further supporting that RiboTAC 7 is selectively deactivating a miR-21-mediated cancer circuit in cells (FIG. 11C-11D).
Global proteomics analysis via LC-MS/MS. MDA-MB-231 cells modified with CRISPR and a control guide RNA were treated as described in “Cell Culture.” After treatment, the medium was removed, and the cells were washed with 1×DPBS. After washing, the cells were scraped from the culture plates, and the resulting suspension was centrifuged. Cell pellets were resuspended in 1×DPBS, and protein concentration was determined using a Pierce Micro BCA Protein Assay Kit (ThermoScientific). Urea (9 M in 100 mM NH4HCO3, pH 8) was added to a final concentration of 6 M to 30 μg lysate (15 μL prepared in 1×DPBS). […] Peptides were desalted over a self-packed C18 spin column, dried, and analyzed via LC-MS/MS. […]

[2] = RiboTAC cellular uptake quantification; type: in vitro ADME; conditions: human, MDA-MB-231 cells; 5 μM in culture medium
Protocol: A time-course for RiboTAC degradation of pre-miR-21 was completed and compared to its cellular permeability. […] Additionally, degradation of pre-miR-21 is first detectable after 48 h of treatment with 7 (FIG. 10B).
RiboTAC Cellular Uptake Quantification. MDA-MB-231 cells were cultured as described in “Cell Culture” with a final cell density of 13,500 cells per well. Cells were treated with 7 (5 μM) for 0, 0.25, 0.5, 0.75, 1, 2, 3, 6, 12, 24, and 48 hours. Following treatment, cells were rapidly washed with 1×PBS to remove any unincorporated compound. Cells were then detached using 75 μl trypsin, immediately homogenized and flash frozen. The cell homogenate was analyzed using a Sciex 6500 mass spectrometer operated in multiple reaction monitoring mode with the transition m/z=1078.3/900.3. Homogenate drug levels were determined by comparison to a standard curve prepared in untreated cell homogenate. Calculated concentrations, (ng drug)/(ml homogenate) or μM drug inside cell, were fit to a one-phase association model using GraphPad Prism.

For `CNC(=O)[C@H](c1ccccc1)N(C)Cc1ccc(-c2cccc(-c3sccc3NC(=O)CCOCCOCCOCCC(=O)NCCN3CCN(c4ccc5nc(-c6c(N)c7c(F)cccc7[nH]c6=O)[nH]c5c4)CC3)c2)cc1` [RiboTAC 7, (S)—N-(2-(4-(2-(4-amino-5-fluoro-2-oxo-1,2-dihydroquinolin-3-yl)-1H-benzo[d]imidazol-6-yl)piperazin-1-yl)ethyl)-3-(2-(2-(3-((2-(4′-((methyl(2-(methylamino)-2-oxo-1-phenylethyl)amino)methyl)-[1,1′-biphenyl]-3-yl)thiophen-3-yl)amino)-3-oxopropoxy)ethoxy)ethoxy)propanamide], the “co-immunoprecipitation of RNA with RNase L” value (pre-miR-21 and RNase L) was “pulled down with RNase L”, the “abundance of miR-21-repressed proteins (cumulative distribution analysis)” value ([1]; proteins encoded by mRNAs with a miR-21-5p binding site in 3′ UTR) was “statistically significant increase” and the “proteins affected of the 3176 proteins detected” value ([1]; proteome-wide, 7 and LNA at concentrations of similar activity) was 0.6%. It also gave a half-life at 5 μM [2] of 2.4 h.
